Assay results taken from the NIST ThermoML archive (doi:10.1016/j.fluid.2018.11.035).
Numbers after ± are expanded uncertainties.

Experiment: wn = mass fraction of the nth substance listed
Details: 101 kPa, Liquid, Vibrating tube method, w1 = 0.365

OCCO [1,2-ethanediol] + O
Details | mass density [kg/m3]
283.15 K | 1059.35 ± 0.11
293.15 K | 1054.78 ± 0.11
303.15 K | 1049.78 ± 0.11
313.15 K | 1044.38 ± 0.1
323.15 K | 1038.57 ± 0.1
333.15 K | 1032.23 ± 0.1
